pEC50, pIC50, pKd: −log10 of the molar value.
What was measured:
Cytochrome P450 2D6 = Cytochrome P450 2D6 (Homo sapiens, UniProt P10635); assay: Inhibition of CYP2D6 (unknown origin); format: ADME
[1] = system: Human immunodeficiency virus 1; assay: Antiviral activity against HIV1 wild type NL (4 to 3) infected in human MT2 cells measured after 4 to 5 days in presence of human serum by dual-luciferase reporter assay; format: functional, organism-based; conditions: mt2
[2] = system: Human immunodeficiency virus 1; assay: Antiviral activity against HIV1 harbouring deltaV370/T371A mutant infected in human MT2 cells measured after 4 to 5 days by dual-luciferase reporter assay; format: functional, organism-based; conditions: mt2
[3] = system: Human immunodeficiency virus 1; assay: Antiviral activity against HIV1 harbouring V362I/V370A mutant infected in human MT2 cells measured after 4 to 5 days by dual-luciferase reporter assay; format: functional, organism-based; conditions: Human immunodeficiency virus 1, MT2
[4] = AUC in rat at 5 mg/kg, po; format: ADME, organism-based; parameters: dose 5 mg/kg, route po; conditions: in vivo
[5] = system: Human immunodeficiency virus 1; assay: Antiviral activity against HIV1 wild type subtype B NL (4 to 3) transfected in human HEK293T cells by dual-luciferase reporter assay; format: functional, organism-based; conditions: Human immunodeficiency virus 1, HEK-293T
[6] = system: Human immunodeficiency virus 1; assay: Antiviral activity against HIV1 wild type subtype C NL (4 to 3) transfected in human HEK293T cells by dual-luciferase reporter assay; format: functional, organism-based; conditions: Human immunodeficiency virus 1, HEK-293T
[7] = system: Human immunodeficiency virus 1; assay: Antiviral activity against HIV1 NL (4 to 3) harbouring V362I mutant transfected in human HEK293T cells by dual-luciferase reporter assay; format: functional, organism-based; conditions: Human immunodeficiency virus 1, HEK-293T
[8] = system: Human immunodeficiency virus 1; assay: Antiviral activity against HIV1 NL (4 to 3) harbouring V362I/deltaV370 mutant transfected in human HEK293T cells by dual-luciferase reporter assay; format: functional, organism-based; conditions: Human immunodeficiency virus 1, HEK-293T
[9] = Half life in overnight fasted Sprague-Dawley rat at 1 mg/kg, iv; format: ADME, organism-based; conditions: in vivo
[10] = Half life in overnight fasted Beagle dog at 1 mg/kg, iv; format: ADME, organism-based, Canis lupus familiaris; conditions: in vivo
[11] = Half life in overnight fasted cynomolgus monkey at 1 mg/kg, iv; format: ADME, organism-based, Macaca fascicularis; conditions: in vivo
[12] = Volume of distribution at steady state in overnight fasted Sprague-Dawley rat at 5 mg/kg, po or 1 mg/kg, iv; format: ADME, organism-based; conditions: in vivo
[13] = Oral bioavailability in overnight fasted Sprague-Dawley rat using spray-dried dispersion at 5 mg/kg; format: ADME, organism-based; conditions: in vivo
[14] = Oral bioavailability in overnight fasted Beagle dog using spray-dried dispersion at 2 mg/kg; format: ADME, organism-based, Canis lupus familiaris; conditions: in vivo
[15] = Oral bioavailability in overnight fasted cynomolgus monkey using spray-dried dispersion at 2 mg/kg; format: ADME, organism-based, Macaca fascicularis; conditions: in vivo
[16] = AUC(0 to t) in overnight fasted mouse at 5 mg/kg, po or 1 mg/kg, iv; format: ADME, organism-based; parameters: dose 5 mg/kg, route po; conditions: in vivo
[17] = AUC(0 to t) in overnight fasted Beagle dog at 2 mg/kg, po or 1 mg/kg, iv; format: ADME, organism-based, Canis lupus familiaris; parameters: dose 2 mg/kg, route po; conditions: in vivo
[18] = Cmax in overnight fasted mouse at 5 mg/kg, po or 1 mg/kg, iv; format: ADME, organism-based; parameters: dose 5 mg/kg, route po; conditions: in vivo
[19] = Cmax in overnight fasted Beagle dog at 2 mg/kg, po or 1 mg/kg, iv; format: ADME, organism-based, Canis lupus familiaris; parameters: dose 2 mg/kg, route po; conditions: in vivo
[20] = Cmax in overnight fasted cynomolgus monkey at 2 mg/kg, po or 1 mg/kg, iv; format: ADME, organism-based, Macaca fascicularis; parameters: dose 2 mg/kg, route po; conditions: in vivo
[21] = Plasma protein binding in human by ultracentrifugation; format: ADME, cell-free; conditions: read-out: PPB (converted)
[22] = system: Human immunodeficiency virus 1; assay: Antiviral activity against HIV1 virus harboring NL (4 to 3) harbouring […]/V370A mutant transfected in human HEK293T cells by luciferase reporter assay; format: functional, organism-based; conditions: Human immunodeficiency virus 1, HEK-293T
[23] = Metabolic stability in mouse liver microsomes assessed as half life in presence of NADPH at 0.5 uM by LC-MS/MS analysis; format: ADME, Microsome
[24] = Metabolic stability in dog liver microsomes assessed as half life in presence of NADPH at 0.5 uM by LC-MS/MS analysis; format: ADME, Canis lupus familiaris, Microsome
Cytochrome P450 2B6 = target: T1, Cytochrome P450 2B6 (Homo sapiens, UniProt P20813); assay: Inhibition of CYP2B6 (unknown origin); format: ADME
T1 sequence (P20813 whole entry): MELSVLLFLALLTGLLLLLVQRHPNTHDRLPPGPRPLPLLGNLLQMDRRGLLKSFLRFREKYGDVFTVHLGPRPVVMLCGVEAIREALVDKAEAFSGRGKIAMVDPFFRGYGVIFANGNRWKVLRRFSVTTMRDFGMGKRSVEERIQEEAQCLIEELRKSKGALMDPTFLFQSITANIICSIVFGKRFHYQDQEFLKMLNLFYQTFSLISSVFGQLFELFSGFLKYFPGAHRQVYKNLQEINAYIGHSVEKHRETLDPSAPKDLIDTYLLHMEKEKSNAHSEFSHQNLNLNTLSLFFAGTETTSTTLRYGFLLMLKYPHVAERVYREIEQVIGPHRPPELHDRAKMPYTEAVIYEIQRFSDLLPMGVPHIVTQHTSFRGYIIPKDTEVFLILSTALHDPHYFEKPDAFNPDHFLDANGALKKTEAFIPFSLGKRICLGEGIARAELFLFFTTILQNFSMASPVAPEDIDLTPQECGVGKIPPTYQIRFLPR

Cytochrome P450 2C8 = target: T2, Cytochrome P450 2C8 (Homo sapiens, UniProt P10632); assay: Inhibition of CYP2C8 (unknown origin); format: ADME
T2 sequence (P10632 whole entry): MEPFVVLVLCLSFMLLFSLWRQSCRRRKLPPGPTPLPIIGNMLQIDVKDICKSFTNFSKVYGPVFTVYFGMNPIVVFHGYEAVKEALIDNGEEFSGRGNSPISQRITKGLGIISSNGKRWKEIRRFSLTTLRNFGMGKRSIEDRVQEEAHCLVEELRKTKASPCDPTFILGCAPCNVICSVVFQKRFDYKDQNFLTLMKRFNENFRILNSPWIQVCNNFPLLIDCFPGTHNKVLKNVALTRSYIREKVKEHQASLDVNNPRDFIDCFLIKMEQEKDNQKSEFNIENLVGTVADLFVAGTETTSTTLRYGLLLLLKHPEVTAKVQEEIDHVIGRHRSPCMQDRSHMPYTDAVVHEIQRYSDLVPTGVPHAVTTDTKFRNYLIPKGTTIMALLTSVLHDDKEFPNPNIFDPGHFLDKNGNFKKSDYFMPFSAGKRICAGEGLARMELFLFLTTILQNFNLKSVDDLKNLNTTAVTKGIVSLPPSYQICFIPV

Cytochrome P450 2C19 = Cytochrome P450 2C19 (Homo sapiens, UniProt P33261); assay: Inhibition of CYP2C19 (unknown origin); format: ADME
[25] = Lipophilicity, log D of the compound at pH 6.5; format: physicochemical; conditions: buffer
CYP3A4 = CYP3A4 (Homo sapiens, UniProt P08684); assay: Induction of CYP3A4 in human hepatocyte; format: ADME, cell-based; conditions: hepatocytes
[26] = Half life in human liver microsomes at […] measured upto 300 mins by LC-MS/MS analysis; format: ADME, Microsome
[27] = Drug concentration in overnight fasted Sprague-Dawley rat plasma at 5 mg/kg, po or 1 mg/kg, iv measured after 24 hrs; format: ADME, organism-based
[28] = Drug concentration in overnight fasted Beagle dog plasma at 2 mg/kg, po or 1 mg/kg, iv measured after 24 hrs; format: ADME, organism-based, Canis lupus familiaris
[29] = Drug concentration in overnight fasted cynomolgus monkey plasma at 2 mg/kg, po or 1 mg/kg, iv measured after 24 hrs; format: ADME, organism-based, Macaca fascicularis
[30] = Binding affinity to HIV1 wild type Gag assessed as dissociation constant; parameters: species or system Human immunodeficiency virus 1

Chain of CYP3A4 (P08684 whole entry): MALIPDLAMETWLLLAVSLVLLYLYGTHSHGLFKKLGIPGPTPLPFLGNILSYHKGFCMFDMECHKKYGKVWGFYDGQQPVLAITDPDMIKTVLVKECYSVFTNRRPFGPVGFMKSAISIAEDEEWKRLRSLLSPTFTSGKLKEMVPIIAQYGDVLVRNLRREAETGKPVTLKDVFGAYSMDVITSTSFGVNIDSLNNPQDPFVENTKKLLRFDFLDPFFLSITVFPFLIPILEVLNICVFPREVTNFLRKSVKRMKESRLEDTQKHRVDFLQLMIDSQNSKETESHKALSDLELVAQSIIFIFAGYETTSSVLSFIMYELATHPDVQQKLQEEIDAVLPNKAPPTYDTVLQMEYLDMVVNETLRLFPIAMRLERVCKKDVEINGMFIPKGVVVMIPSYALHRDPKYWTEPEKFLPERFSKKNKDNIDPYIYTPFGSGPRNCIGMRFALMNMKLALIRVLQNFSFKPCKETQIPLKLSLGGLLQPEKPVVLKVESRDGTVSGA
Chain of Cytochrome P450 2C19 (P33261 whole entry): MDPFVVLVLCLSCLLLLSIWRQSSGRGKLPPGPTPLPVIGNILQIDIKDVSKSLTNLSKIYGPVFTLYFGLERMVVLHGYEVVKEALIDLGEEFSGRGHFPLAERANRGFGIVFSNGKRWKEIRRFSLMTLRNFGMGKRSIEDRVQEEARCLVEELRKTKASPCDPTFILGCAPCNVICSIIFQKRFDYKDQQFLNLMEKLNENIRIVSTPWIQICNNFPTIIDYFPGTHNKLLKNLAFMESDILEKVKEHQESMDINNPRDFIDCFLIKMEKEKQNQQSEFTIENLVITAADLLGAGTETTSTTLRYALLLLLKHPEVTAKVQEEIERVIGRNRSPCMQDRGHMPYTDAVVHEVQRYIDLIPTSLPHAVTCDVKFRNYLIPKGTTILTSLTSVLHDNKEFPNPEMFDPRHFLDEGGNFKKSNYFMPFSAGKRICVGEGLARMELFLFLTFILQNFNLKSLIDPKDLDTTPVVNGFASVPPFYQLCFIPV
Chain of Cytochrome P450 2D6 (P10635 whole entry): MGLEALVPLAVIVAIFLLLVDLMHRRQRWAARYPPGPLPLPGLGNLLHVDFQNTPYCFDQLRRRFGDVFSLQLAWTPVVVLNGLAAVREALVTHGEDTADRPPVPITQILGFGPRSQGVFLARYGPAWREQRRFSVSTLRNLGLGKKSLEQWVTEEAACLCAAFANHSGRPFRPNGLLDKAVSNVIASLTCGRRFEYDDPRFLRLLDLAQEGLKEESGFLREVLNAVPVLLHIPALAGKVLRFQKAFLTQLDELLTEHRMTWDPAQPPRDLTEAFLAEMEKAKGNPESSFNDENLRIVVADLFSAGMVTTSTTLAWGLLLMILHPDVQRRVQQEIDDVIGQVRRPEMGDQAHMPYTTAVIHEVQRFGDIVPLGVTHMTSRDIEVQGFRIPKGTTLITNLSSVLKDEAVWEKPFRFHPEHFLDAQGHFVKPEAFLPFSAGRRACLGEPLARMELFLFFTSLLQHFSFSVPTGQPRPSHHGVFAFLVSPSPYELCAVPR

Which results are given for C=C(C)[C@@H]1CC[C@]2(NCCN3CCS(=O)(=O)CC3)CC[C@]3(C)[C@H](CC[C@@H]4[C@@]5(C)CC=C(C6=CC[C@@](CF)(C(=O)O)CC6)C(C)(C)[C@@H]5CC[C@]43C)[C@@H]12 [FIPRAVIRIMAT]?
pIC50 (Cytochrome P450 2D6): < 4.88; pEC50 [1]: 7.86; pEC50 [2]: 8.44; pEC50 [3]: 8.52; AUC [4]: 7.368 µM·h; pEC50 [5]: 8.72; pEC50 [6]: 8.92; pEC50 [7]: 8.57; pEC50 [8]: 8.52; half-life [9]: 4 h; half-life [10]: 18.7 h; half-life [11]: 5.3 h; Vdss [12]: 1.8 L/kg; bioavailability [13]: 40%; F [14]: 117%; bioavailability [15]: 28%; AUC(0-t) [16]: 29.9 µM·h; AUCt [17]: 4.3 µM·h; Cmax [18]: 2700 nM; Cmax [19]: 4300 nM; Cmax [20]: 800 nM; fraction unbound [21]: 0.14; pEC50 [22]: < 5.52; half-life at 0.5 µM [23]: > 2 h; half-life at 0.5 µM [24]: > 2 h; pIC50 (Cytochrome P450 2B6): < 4.88; pIC50 (Cytochrome P450 2C8): < 4.88; pIC50 (Cytochrome P450 2C19): < 4.88; logD [25]: 4.9; pEC50 (CYP3A4): < 5.30; half-life [26]: > 24 h; concentration at 24 h [27]: 21.8 nM; concentration at 24 h [28]: 1640 nM; concentration at 24 h [29]: 68 nM; pKd [30]: 8.85

From ChEMBL document CHEMBL5113515, “The Discovery of GSK3640254, a Next-Generation Inhibitor of HIV-1 Maturation” (J Med Chem, 2022)
